US20040087633A1, “Methylidene oxazolidinone compound and preparation method thereof” (Korea Institute of Science and Technology, priority 2002, published 2004)
≈ marks a conversion by molar mass, not a printed value.

Legend:
Test in all cases: Anti-microbial activity test in vitro (agar dilution MIC)
CRSA C1062 = type: cell-based, Staphylococcus aureus; conditions: CRSA C1062; Agar Dilution method, Mueller Hinton Agar, 18 hours at 37° C.
Experimental: (§1) Anti-microbial activity test in vitro
(§2) Strains were cultivated for 18 hours at 37° C. in Agar Dilution method using Mueller Hinton Agar, and then plane plates inoculated with the strains by diluting them two times gradually were aligned in a row. Minimum inhibition concentration (MIC, μg/ml) for the representative compounds of the present invention, Linezolid (LZD) and vancomycin (VAN) were decided through visual observation, and the results are shown in the following tables 2 and 3.

CRSA C6043 = type: cell-based, Staphylococcus aureus; conditions: CRSA C6043; Agar Dilution method, Mueller Hinton Agar, 18 hours at 37° C.
Experimental: as §1, §2

MRSA C2207 = type: cell-based, Staphylococcus aureus; conditions: MRSA C2207; Agar Dilution method, Mueller Hinton Agar, 18 hours at 37° C.
Experimental: as §1, §2

MRSA C5100 = type: cell-based, Staphylococcus aureus; conditions: MRSA C5100; Agar Dilution method, Mueller Hinton Agar, 18 hours at 37° C.
Experimental: as §1, §2

MRSA C6068 = type: cell-based, Staphylococcus aureus; conditions: MRSA C6068; Agar Dilution method, Mueller Hinton Agar, 18 hours at 37° C.
Experimental: as §1, §2

MSSA C2214 = type: cell-based, Staphylococcus aureus; conditions: MSSA C2214; Agar Dilution method, Mueller Hinton Agar, 18 hours at 37° C.
Experimental: as §1, §2

MSSA C7142 = type: cell-based, Staphylococcus aureus; conditions: MSSA C7142; Agar Dilution method, Mueller Hinton Agar, 18 hours at 37° C.
Experimental: as §1, §2

E. faecalis ATCC29212 = type: cell-based; conditions: E. faecalis ATCC29212; Agar Dilution method, Mueller Hinton Agar, 18 hours at 37° C.
Experimental: as §1, §2

E. faecalis C6288 = type: cell-based; conditions: E. faecalis C6288; Agar Dilution method, Mueller Hinton Agar, 18 hours at 37° C.
Experimental: as §1, §2

E. faecalis C6291 = type: cell-based; conditions: E. faecalis C6291; Agar Dilution method, Mueller Hinton Agar, 18 hours at 37° C.
Experimental: as §1, §2

E. faecium C2252 = type: cell-based; conditions: E. faecium C2252; Agar Dilution method, Mueller Hinton Agar, 18 hours at 37° C.
Experimental: as §1, §2

E. faecium C6301 = type: cell-based; conditions: E. faecium C6301; Agar Dilution method, Mueller Hinton Agar, 18 hours at 37° C.
Experimental: as §1, §2

S. aureus ATCC 29213 = type: cell-based; conditions: Agar Dilution method, Mueller Hinton Agar, 18 hours at 37° C.
Experimental: as §1, §2

S. epidermidis ATCC12228 = type: cell-based; conditions: S. epidermidis ATCC12228; Agar Dilution method, Mueller Hinton Agar, 18 hours at 37° C.
Experimental: as §1, §2

S. epidermidis C2230 = type: cell-based; conditions: S. epidermidis C2230; Agar Dilution method, Mueller Hinton Agar, 18 hours at 37° C.
Experimental: as §1, §2

S. epidermidis C2235 = type: cell-based; conditions: S. epidermidis C2235; Agar Dilution method, Mueller Hinton Agar, 18 hours at 37° C.
Experimental: as §1, §2

S. pyogenes ATCC8668 = type: cell-based; conditions: S. pyogenes ATCC8668; Agar Dilution method, Mueller Hinton Agar, 18 hours at 37° C.
Experimental: as §1, §2

S. pyogenes C6003 = type: cell-based; conditions: S. pyogenes C6003; Agar Dilution method, Mueller Hinton Agar, 18 hours at 37° C.
Experimental: as §1, §2

S. pyogenes C6012 = type: cell-based; conditions: S. pyogenes C6012; Agar Dilution method, Mueller Hinton Agar, 18 hours at 37° C.
Experimental: as §1, §2

VRE C6487 = type: cell-based, Enterococcus faecium; conditions: VRE C6487; Agar Dilution method, Mueller Hinton Agar, 18 hours at 37° C.
Experimental: as §1, §2

VRE C6488 = type: cell-based, Enterococcus faecium; conditions: VRE C6488; Agar Dilution method, Mueller Hinton Agar, 18 hours at 37° C.
Experimental: as §1, §2

Row | SMILES | Minimum inhibition concentration (MIC) (CRSA C1062) | Minimum inhibition concentration (MIC) (CRSA C6043) | Minimum inhibition concentration (MIC) (MRSA C2207) | Minimum inhibition concentration (MIC) (MRSA C5100) | Minimum inhibition concentration (MIC) (MRSA C6068) | Minimum inhibition concentration (MIC) (MSSA C2214) | Minimum inhibition concentration (MIC) (MSSA C7142) | Minimum inhibition concentration (MIC) (E. faecalis ATCC29212) | Minimum inhibition concentration (MIC) (E. faecalis C6288) | Minimum inhibition concentration (MIC) (E. faecalis C6291) | Minimum inhibition concentration (MIC) (E. faecium C2252) | Minimum inhibition concentration (MIC) (E. faecium C6301) | Minimum inhibition concentration (MIC) (S. aureus ATCC 29213) | Minimum inhibition concentration (MIC) (S. epidermidis ATCC12228) | Minimum inhibition concentration (MIC) (S. epidermidis C2230) | Minimum inhibition concentration (MIC) (S. epidermidis C2235) | Minimum inhibition concentration (MIC) (S. pyogenes ATCC8668) | Minimum inhibition concentration (MIC) (S. pyogenes C6003) | Minimum inhibition concentration (MIC) (S. pyogenes C6012) | Minimum inhibition concentration (MIC) (VRE C6487) | further results
1 | CC(=O)NC[C@H]1CN(c2ccc(N3CCC(=CC=O)CC3)c(F)c2)C(=O)O1 [Compound 17, N-[[(5S)-3-[3-fluoro-4-(4-(2-oxoethylidene)piperidinyl)-phenyl]-2-oxo-5-oxazolidinyl]methyl]acetamide] | 8 µg/mL (≈ 21.3 µM) | 4 µg/mL (≈ 10.7 µM) | 4 µg/mL (≈ 10.7 µM) | 4 µg/mL (≈ 10.7 µM) | 4 µg/mL (≈ 10.7 µM) | 8 µg/mL (≈ 21.3 µM) | 4 µg/mL (≈ 10.7 µM) | 16 µg/mL (≈ 42.6 µM) | 4 µg/mL (≈ 10.7 µM) | 8 µg/mL (≈ 21.3 µM) | 8 µg/mL (≈ 21.3 µM) | 4 µg/mL (≈ 10.7 µM) | 8 µg/mL (≈ 21.3 µM) | 1 µg/mL (≈ 2.66 µM) | 2 µg/mL (≈ 5.33 µM) | 2 µg/mL (≈ 5.33 µM) | 2 µg/mL (≈ 5.33 µM) | 8 µg/mL (≈ 21.3 µM) | 1 µg/mL (≈ 2.66 µM) | 8 µg/mL (≈ 21.3 µM) | Minimum inhibition concentration (MIC) (VRE C6488): 8 µg/mL (≈ 21.3 µM)
2 | CCOC(=O)C(Cl)=C1CCN(c2ccc(N3C[C@H](CNC(C)=O)OC3=O)cc2F)CC1 [Compound 15, N-[[(5S)-3-[3-fluoro-4-((4-(1-ethoxycarbonyl-1-chloro)-methylidene)piperidinyl)phenyl]-2-oxo-5-oxazolidinyl]methyl]acetamide] | 16 µg/mL (≈ 35.3 µM) | 16 µg/mL (≈ 35.3 µM) | 16 µg/mL (≈ 35.3 µM) | 16 µg/mL (≈ 35.3 µM) | 16 µg/mL (≈ 35.3 µM) | 8 µg/mL (≈ 17.6 µM) | 8 µg/mL (≈ 17.6 µM) | 8 µg/mL (≈ 17.6 µM) | 8 µg/mL (≈ 17.6 µM) | 4 µg/mL (≈ 8.81 µM) | 4 µg/mL (≈ 8.81 µM) | 2 µg/mL (≈ 4.41 µM) | 32 µg/mL (≈ 70.5 µM) | 2 µg/mL (≈ 4.41 µM) | 4 µg/mL (≈ 8.81 µM) | 4 µg/mL (≈ 8.81 µM) | 2 µg/mL (≈ 4.41 µM) | 2 µg/mL (≈ 4.41 µM) | 8 µg/mL (≈ 17.6 µM) | 2 µg/mL (≈ 4.41 µM) | Minimum inhibition concentration (MIC) (VRE C6488): 4 µg/mL (≈ 8.81 µM)
3 | CC(=O)NC[C@H]1CN(c2ccc(N3CCC(=CC#N)CC3)c(F)c2)C(=O)O1 [Compound 8, N-[[(5S)-3-[3-fluoro-4-(4-cyanomethylidenepiperidinyl)-phenyl]-2-oxo-5-oxazolidinyl]methyl]acetamide] | 2 µg/mL (≈ 5.37 µM) | 2 µg/mL (≈ 5.37 µM) | 2 µg/mL (≈ 5.37 µM) | 2 µg/mL (≈ 5.37 µM) | 1 µg/mL (≈ 2.69 µM) | 4 µg/mL (≈ 10.7 µM) | 2 µg/mL (≈ 5.37 µM) | 2 µg/mL (≈ 5.37 µM) | 2 µg/mL (≈ 5.37 µM) | 2 µg/mL (≈ 5.37 µM) | 2 µg/mL (≈ 5.37 µM) | 2 µg/mL (≈ 5.37 µM) | 2 µg/mL (≈ 5.37 µM) | 0.5 µg/mL (≈ 1.34 µM) | 2 µg/mL (≈ 5.37 µM) | 1 µg/mL (≈ 2.69 µM) | 0.5 µg/mL (≈ 1.34 µM) | 2 µg/mL (≈ 5.37 µM) | 0.5 µg/mL (≈ 1.34 µM) | 4 µg/mL (≈ 10.7 µM) | Minimum inhibition concentration (MIC) (VRE C6488): 4 µg/mL (≈ 10.7 µM)
4 | CC(=O)NC[C@H]1CN(c2ccc(N3CCC(=CC(C)OC(=O)C(Cl)Cl)CC3)c(F)c2)C(=O)O1 (stereo partly drawn) [Compound 25, N-[[(5S)-3-[3-fluoro-4-(4-(2-(dichloroacetoxy)propylidene)-piperidinyl)-phenyl]-2-oxo-5-oxazolidinyl]methyl]acetamide] | 16 µg/mL (≈ 31.8 µM) | 16 µg/mL (≈ 31.8 µM) | 16 µg/mL (≈ 31.8 µM) | 8 µg/mL (≈ 15.9 µM) | 8 µg/mL (≈ 15.9 µM) | 16 µg/mL (≈ 31.8 µM) | 16 µg/mL (≈ 31.8 µM) | 8 µg/mL (≈ 15.9 µM) | 8 µg/mL (≈ 15.9 µM) | 8 µg/mL (≈ 15.9 µM) | 8 µg/mL (≈ 15.9 µM) | 8 µg/mL (≈ 15.9 µM) | 16 µg/mL (≈ 31.8 µM) | 2 µg/mL (≈ 3.98 µM) | 8 µg/mL (≈ 15.9 µM) | 8 µg/mL (≈ 15.9 µM) | 2 µg/mL (≈ 3.98 µM) | 8 µg/mL (≈ 15.9 µM) | 2 µg/mL (≈ 3.98 µM) | 4 µg/mL (≈ 7.96 µM) | Minimum inhibition concentration (MIC) (VRE C6488): 4 µg/mL (≈ 7.96 µM)
